Data published in patent publication US4673692A, “Diphenylmethylimine derivatives, their compositions and pharmaceutical uses” (Teikoku Hormone Mfg. Co., Ltd., priority 1984, dated 1987).
Each block holds one compound with its values, some of them ahead of it.

Assays:
[1] = Pharmacological actions of previously disclosed compound
carrageenan paw edema = assay: Anti-inflammatory activity: carrageenan-induced hind paw edema; type: in vivo, Male Wistar rats; details: 10 mg/kg, p.o.; carrageenan 1 h after dosing, volume measured 3 h later; 5 rats per group
Method: Male Wistar rats weighing 120 to 150 g which had been fasted for 24 hours were used in groups each consisting of 5 rats. In each group, the volumes of the right hind paw were measured by a volume differential meter (made by Ugo Basile Company), and each of the test compounds was suspended in an aqueous solution of 0.5% of carboxymethyl cellulose and 2.0% of Tween 80, and administered orally through a tube. After one hour from the administration, […] suspension of carrageenan in distilled water was subcutaneously injected into the plantar tissues of the right hind paw. Three hours later, the volumes of the right hind paw were again measured. The increase in volume of the right hind paw of each rat in each group (the volume of edema) was measured. The percent edema inhibition was calculated in accordance with the following equation, and the results are shown in Tale 1.

5-lipoxygenase = biological target: T1, 5-lipoxygenase (Rattus norvegicus, UniProt P12527); assay: 5-lipoxygenase inhibiting action (formation of 5-HETE and 5,12-diHETE) in white blood cells from rat pleural exudate; type: cell-based; details: 14C arachidonic acid, A23187, 2 minutes, read-out: concentration inhibiting 50% of the formation of 5-HETE
T1 construct: endogenous in cells; host or cells: white blood cells from the pleural exudate of rats with carrageenan-induced pleurisy
T1 sequence (P12527 1-673): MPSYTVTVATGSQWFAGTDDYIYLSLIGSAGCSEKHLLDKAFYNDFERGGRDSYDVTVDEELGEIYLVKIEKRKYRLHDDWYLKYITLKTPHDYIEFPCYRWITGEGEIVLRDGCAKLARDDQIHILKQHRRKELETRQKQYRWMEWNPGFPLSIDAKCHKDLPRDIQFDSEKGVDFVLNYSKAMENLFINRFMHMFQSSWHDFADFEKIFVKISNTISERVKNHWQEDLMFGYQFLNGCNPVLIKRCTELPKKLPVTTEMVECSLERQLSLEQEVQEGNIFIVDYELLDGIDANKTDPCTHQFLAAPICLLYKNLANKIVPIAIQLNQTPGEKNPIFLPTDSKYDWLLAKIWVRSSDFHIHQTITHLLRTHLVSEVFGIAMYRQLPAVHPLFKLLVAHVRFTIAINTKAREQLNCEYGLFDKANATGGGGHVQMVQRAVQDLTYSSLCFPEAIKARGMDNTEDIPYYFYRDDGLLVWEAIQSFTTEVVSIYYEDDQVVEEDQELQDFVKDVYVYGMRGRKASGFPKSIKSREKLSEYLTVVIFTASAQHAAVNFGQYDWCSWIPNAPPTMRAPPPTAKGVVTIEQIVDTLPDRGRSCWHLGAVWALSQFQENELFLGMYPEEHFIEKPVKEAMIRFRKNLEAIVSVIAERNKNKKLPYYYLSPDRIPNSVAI
Method: (§1) The actions of the compounds of this invention to inhibit 5-lipoxygenase and cyclooxygenase activities were measured in accordance with the method of Siegel et al. [Prostaglandins, Vol. 21, page 123 (1981)].
(§2) The exudate was extracted from the pleural cavity of a rat with carrageenan-induced pleurisy. White blood cells from the exudate were suspended in 50 mM Tris-HCl buffer (pH 7.4) containing 100 mM sodium chloride and 1 mM calcium chloride. To a fixed amount of the white blood cell suspension were added a test compound, ^14 C arachidonic acid and a calcium ionophore (A23187), and the mixture was incubated for 2 minutes. […] The radioactivity of each of the fractions was measured by a liquid scintillation counter, and the percentage of the radioactivity of each fraction based on the total radioactivity was calculated (the ratio of formation). The inhibition ratio of the test compound against the synthesis ability of each fraction was determined by using the ratio of formation as an index.
(§3) The lipoxygenase activity was determined by using the formation of 5S-hydroxy-6,8,11,14-eicosatetraenoic acid (5-HETE) and 5S,12R-dihydroxy-6,8,10,14-eicosatetraenoic acid (5,12-diHETE) as indices. The cyclooxygenase activity was determined by using the formation of 12-hydroxyheptadecatrienoic acid (HHT) as an index. […]

cyclooxygenase = assay: Cyclooxygenase inhibiting action (formation of HHT) in white blood cells from rat pleural exudate; type: cell-based; details: 14C arachidonic acid, A23187, 2 minutes, read-out: concentration inhibiting 50% of the formation of HHT
Method: as §1, §2, §3

[2] = test system: adjuvant-induced arthritis; assay: Preventive effect on adjuvant-induced arthritis; type: in vivo, Sprague-Dawley strain female rats
Method: Sprague-Dawley strain female rats, 6 weeks old, were used. Killed and dried M. butyricum (Difco) were suspended (6 mg/ml) in light liquid paraffin, and the suspension was sterilized under pressure to form Freund's complete adjuvant. 0.1 ml of the Freund's complete adjuvant was injected subcutaneously into the right hind paws of the animals to induce arthritis. After the injection of the Freund's complete adjuvant, the test compound was orally administered once a day for 21 consecutive days including the day of injection. The volumes of the left and right hind paws were measured by using the device devised by Fujihira [Eiichi Fujihira: Oyo Yakuri 5, 169-182 (1971)], and the increases in volume from before the injection of the adjuvant was measured and used as an index of swelling. Changes in swelling after the stopping of drug administration were also examined. The animals were used in groups each consisting of 10 members.

granuloma formation = assay: Inhibitory effect on granuloma formation (filter paper implantation); type: in vivo, Wistar strain male rats; details: Rattus norvegicus, po, 168 h; once a day for 7 days; p<0.001, n=7-8; read-out: dose significantly decreasing the dry weight of granuloma
Method: Wistar strain male rats were used. Under anesthesia with hexobarbital-Na (100 mg/kg, i.p.), the hair of the back of each rat was removed. Filter paper pieces prepared in tablet form (Toyo Filter Paper, No. 85K, 9 mm diameter) sterilized under pressure were implanted subcutaneously on the left and right sides of the back, and oily procaine penicillin G (a product of Banyu Pharmaceutical Co., Ltd.; 300,000 units/ml) was intramuscularly injected in an amount of 0.25 ml.
After the implantation of the filter paper pieces, the test compound was orally administered once a day for 7 consecutive days including the day of implantation. On the day next to the day of the final administration, the filter paper pieces and granuloma formed around them were excised, and dried at about 60° C. for 24 hours. Their weight was measured. The weight of the filter paper pieces was subtracted, and the balance was defined as the dry amount of glanuloma.

stomach = assay: Ulcerogenic activity; type: in vivo, male Wistar rats; details: 300 mg/kg, p.o.; 4 hours after dosing; fasted rats
Method: The test compound was orally administered by the same way as in the test on anti-inflammatory activity to male Wistar rats weighing 120 to 150 g which had been fasted for 24 hours. Four hours later, they were killed with ether.

SMILES: CON=C(c1ccccc1)c1cc(C(C)(C)C)c(O)c(C(C)(C)C)c1
- pharmacological actions such as anti-inflammatory, analgesic or anti-rheumatic activity [1]: does not substantially show pharmacological actions

- IC50 (5-lipoxygenase): 6.2 µM
- IC50 (cyclooxygenase): 1.25 µM
SMILES: CC(C)(C)c1cc(C(=NO)c2ccccc2)cc(C(C)(C)C)c1O [A, 3,5-di-t-butyl-4-hydroxybenzophenone oxime]
- Percent inhibition (edema) (carrageenan paw edema): 26.7%
- minimal effective dose ([2]; Rattus norvegicus, po, 504 h, once a day for 21 days, p<0.05, n=10, read-out: dose significantly inhibiting the development of adjuvant-induced arthritis): ≥ 3 mg/kg
- rebound phenomenon in swelling after the stopping of drug administration ([2]; after 21 days of oral administration): No rebound phenomenon was noted
- minimal effective dose (granuloma formation): ≥ 3 mg/kg
- gastric trouble (stomach): no gastric trouble

SMILES: CC(=O)ON=C(c1ccccc1)c1cc(C(C)(C)C)c(O)c(C(C)(C)C)c1 [B, 3,5-di-t-butyl-4-hydroxybenzophenone O-acetyloxime]
- Percent inhibition (edema) (carrageenan paw edema): 22.7%

SMILES: CCC(=O)ON=C(c1ccccc1)c1cc(C(C)(C)C)c(O)c(C(C)(C)C)c1 [C, 3,5-di-t-butyl-4-hydroxybenzophenone O-propionyloxime]
- Percent inhibition (edema) (carrageenan paw edema): 23.6%

SMILES: CC(C)(C)c1cc(C(=NN)c2ccccc2)cc(C(C)(C)C)c1O [D, 3,5-di-t-butyl-4-hydroxybenzophenone hydrazone]
- Percent inhibition (edema) (carrageenan paw edema): 21.0%
